# Results from PubChem BioAssay (NCI).
#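 Step 1: Grow cells in 96-well plates. Step 2: Expose to compound for 48 hours at 5 concentrations. Step 3: Interpolate endpoints linearly; if unreached, use highest concentration. The concentration for full growth arrest is given as TGI.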
# How the values were obtained:
# Test in all cases: growth of human tumour cells (NCI), 48 h
# TK-10 renal = test system: TK-10 renal
# 786-0 renal = test system: 786-0 renal
# PC-3 prostate = test system: PC-3 prostate
# U251 CNS = test system: U251 CNS
# HCT-15 colon = test system: HCT-15 colon
# A549 NSCLC = test system: A549 NSCLC
# KM12 colon = test system: KM12 colon
# K-562 leukemia = test system: K-562 leukemia
# RXF 393 renal = test system: RXF 393 renal
# NCI-H522 lung = test system: NCI-H522 lung
# ACHN renal = test system: ACHN renal
# SR leukemia = test system: SR leukemia
# SK-MEL-28 melanoma = test system: SK-MEL-28 melanoma
# T-47D breast = test system: T-47D breast
# MDA-MB-231 breast = test system: MDA-MB-231 breast
# HCT-116 colon = test system: HCT-116 colon
# UACC-257 melanoma = test system: UACC-257 melanoma
# HT29 colon = test system: HT29 colon
# OVCAR-8 ovarian = test system: OVCAR-8 ovarian
# SF-295 CNS = test system: SF-295 CNS
# BT-549 breast = test system: BT-549 breast
# MALME-3M melanoma = test system: MALME-3M melanoma
# M14 melanoma = test system: M14 melanoma
# IGROV1 ovarian = test system: IGROV1 ovarian
# SF-268 CNS = test system: SF-268 CNS
# MDA-N = test system: MDA-N
# MDA-MB-435 = test system: MDA-MB-435
# CAKI-1 renal = test system: CAKI-1 renal
# SF-539 CNS = test system: SF-539 CNS
# HCC-2998 colon = test system: HCC-2998 colon
# UO-31 renal = test system: UO-31 renal
# SNB-19 CNS = test system: SNB-19 CNS
# SK-MEL-2 melanoma = test system: SK-MEL-2 melanoma
# OVCAR-5 ovarian = test system: OVCAR-5 ovarian
# HS 578T breast = test system: HS 578T breast
# OVCAR-4 ovarian = test system: OVCAR-4 ovarian
# UACC-62 melanoma = test system: UACC-62 melanoma
# MCF7 breast = test system: MCF7 breast
# DU-145 prostate = test system: DU-145 prostate
# RPMI-8226 leukemia = test system: RPMI-8226 leukemia
# A498 renal = test system: A498 renal
# NCI-H23 lung = test system: NCI-H23 lung
# SW-620 colon = test system: SW-620 colon
# SNB-75 CNS = test system: SNB-75 CNS
# NCI/ADR-RES ovarian = test system: NCI/ADR-RES ovarian
# MOLT-4 leukemia = test system: MOLT-4 leukemia
# CCRF-CEM leukemia = test system: CCRF-CEM leukemia
# HOP-62 NSCLC = test system: HOP-62 NSCLC
# HL-60(TB) leukemia = test system: HL-60(TB) leukemia
# HOP-92 NSCLC = test system: HOP-92 NSCLC
# NCI-H460 lung = test system: NCI-H460 lung
# SN12C renal = test system: SN12C renal
# NCI-H226 lung = test system: NCI-H226 lung
# COLO 205 colon = test system: COLO 205 colon
# EKVX NSCLC = test system: EKVX NSCLC
# SK-MEL-5 melanoma = test system: SK-MEL-5 melanoma
# SK-OV-3 ovarian = test system: SK-OV-3 ovarian
# OVCAR-3 ovarian = test system: OVCAR-3 ovarian
# LOX IMVI melanoma = test system: LOX IMVI melanoma
structure (smiles),measurement,setting,value
COc1cc([C@@]23OC[C@@H]4[C@@H](OC[C@@H]42)c2cc4c(cc23)OCO4)cc(OC)c1OC,TGI,TK-10 renal,> 100 µM
same,TGI,786-0 renal,> 100 µM
same,TGI,PC-3 prostate,> 100 µM
same,TGI,U251 CNS,> 74.5 µM
same,TGI,HCT-15 colon,> 100 µM
same,TGI,A549 NSCLC,> 100 µM
same,TGI,KM12 colon,> 100 µM
same,TGI,K-562 leukemia,> 100 µM
same,TGI,RXF 393 renal,> 100 µM
same,TGI,NCI-H522 lung,< 0.01 µM
same,TGI,ACHN renal,> 100 µM
same,TGI,SR leukemia,> 77 µM
same,TGI,SK-MEL-28 melanoma,> 100 µM
same,TGI,T-47D breast,> 100 µM
same,TGI,MDA-MB-231 breast,< 0.01 µM
same,TGI,HCT-116 colon,> 100 µM
same,TGI,UACC-257 melanoma,> 100 µM
same,TGI,HT29 colon,> 100 µM
same,TGI,OVCAR-8 ovarian,> 100 µM
same,TGI,SF-295 CNS,> 100 µM
same,TGI,BT-549 breast,> 66.4 µM
same,TGI,MALME-3M melanoma,> 100 µM
same,TGI,M14 melanoma,> 100 µM
same,TGI,IGROV1 ovarian,> 100 µM
same,TGI,SF-268 CNS,> 100 µM
same,TGI,MDA-N,> 100 µM
same,TGI,MDA-MB-435,> 100 µM
same,TGI,CAKI-1 renal,> 100 µM
same,TGI,SF-539 CNS,> 47.1 µM
same,TGI,HCC-2998 colon,0.0241 µM
same,TGI,UO-31 renal,> 100 µM
same,TGI,SNB-19 CNS,> 100 µM
same,TGI,SK-MEL-2 melanoma,62.8 µM
same,TGI,OVCAR-5 ovarian,> 100 µM
same,TGI,HS 578T breast,10.5 µM
same,TGI,OVCAR-4 ovarian,> 100 µM
same,TGI,UACC-62 melanoma,> 100 µM
same,TGI,MCF7 breast,> 100 µM
same,TGI,DU-145 prostate,> 100 µM
same,TGI,RPMI-8226 leukemia,> 77.1 µM
same,TGI,A498 renal,15.1 µM
same,TGI,NCI-H23 lung,> 100 µM
same,TGI,SW-620 colon,> 100 µM
same,TGI,SNB-75 CNS,> 100 µM
same,TGI,NCI/ADR-RES ovarian,< 0.01 µM
same,TGI,MOLT-4 leukemia,> 100 µM
same,TGI,CCRF-CEM leukemia,> 100 µM
same,TGI,HOP-62 NSCLC,> 100 µM
C(=N\OCCc1ccccc1)/c1cccnc1,TGI,TK-10 renal,> 100 µM
same,TGI,786-0 renal,> 100 µM
same,TGI,HL-60(TB) leukemia,> 100 µM
same,TGI,PC-3 prostate,> 100 µM
same,TGI,U251 CNS,> 100 µM
same,TGI,HOP-92 NSCLC,> 100 µM
same,TGI,HCT-15 colon,> 100 µM
same,TGI,A549 NSCLC,> 100 µM
same,TGI,NCI-H460 lung,> 100 µM
same,TGI,KM12 colon,> 100 µM
same,TGI,SN12C renal,> 100 µM
same,TGI,K-562 leukemia,> 100 µM
same,TGI,RXF 393 renal,> 100 µM
same,TGI,NCI-H522 lung,> 100 µM
same,TGI,ACHN renal,> 100 µM
same,TGI,NCI-H226 lung,> 100 µM
same,TGI,SK-MEL-28 melanoma,> 100 µM
same,TGI,T-47D breast,> 100 µM
same,TGI,COLO 205 colon,> 100 µM
same,TGI,MDA-MB-231 breast,> 100 µM
same,TGI,HCT-116 colon,> 100 µM
same,TGI,UACC-257 melanoma,> 100 µM
same,TGI,HT29 colon,> 100 µM
same,TGI,OVCAR-8 ovarian,> 100 µM
same,TGI,SF-295 CNS,> 100 µM
same,TGI,BT-549 breast,> 100 µM
same,TGI,MALME-3M melanoma,> 100 µM
same,TGI,EKVX NSCLC,> 100 µM
same,TGI,M14 melanoma,> 100 µM
same,TGI,IGROV1 ovarian,> 100 µM
same,TGI,SF-268 CNS,> 100 µM
same,TGI,MDA-N,> 100 µM
same,TGI,MDA-MB-435,> 100 µM
same,TGI,SF-539 CNS,> 100 µM
same,TGI,HCC-2998 colon,> 100 µM
same,TGI,SK-MEL-5 melanoma,> 100 µM
same,TGI,UO-31 renal,> 100 µM
same,TGI,SNB-19 CNS,> 100 µM
same,TGI,SK-MEL-2 melanoma,> 100 µM
same,TGI,OVCAR-5 ovarian,> 100 µM
same,TGI,HS 578T breast,> 100 µM
same,TGI,OVCAR-4 ovarian,> 100 µM
same,TGI,UACC-62 melanoma,> 100 µM
same,TGI,MCF7 breast,> 100 µM
same,TGI,DU-145 prostate,> 100 µM
same,TGI,RPMI-8226 leukemia,> 100 µM
same,TGI,NCI-H23 lung,> 100 µM
same,TGI,SW-620 colon,> 100 µM
same,TGI,SNB-75 CNS,> 100 µM
same,TGI,NCI/ADR-RES ovarian,> 100 µM
same,TGI,MOLT-4 leukemia,> 100 µM
same,TGI,CCRF-CEM leukemia,> 100 µM
same,TGI,SK-OV-3 ovarian,> 100 µM
same,TGI,HOP-62 NSCLC,> 100 µM
same,TGI,OVCAR-3 ovarian,> 100 µM
COC1=CC(=O)c2c(c(COP(=O)(N(C)CCBr)N(C)CCBr)cn2C)C1=O,TGI,TK-10 renal,0.496 µM
same,TGI,786-0 renal,0.349 µM
same,TGI,HL-60(TB) leukemia,> 100 µM
same,TGI,PC-3 prostate,7.02 µM
same,TGI,U251 CNS,0.448 µM
same,TGI,HCT-15 colon,0.193 µM
same,TGI,A549 NSCLC,0.659 µM
same,TGI,NCI-H460 lung,0.983 µM
same,TGI,KM12 colon,1.07 µM
same,TGI,SN12C renal,0.371 µM
same,TGI,RXF 393 renal,0.289 µM
same,TGI,NCI-H522 lung,0.374 µM
same,TGI,ACHN renal,0.0728 µM
same,TGI,SK-MEL-28 melanoma,0.33 µM
same,TGI,T-47D breast,19 µM
same,TGI,COLO 205 colon,0.209 µM
same,TGI,MDA-MB-231 breast,1.07 µM
same,TGI,UACC-257 melanoma,1.2 µM
same,TGI,HT29 colon,0.222 µM
same,TGI,OVCAR-8 ovarian,0.314 µM
same,TGI,SF-295 CNS,0.366 µM
same,TGI,BT-549 breast,0.616 µM
same,TGI,MALME-3M melanoma,0.291 µM
same,TGI,EKVX NSCLC,0.578 µM
same,TGI,M14 melanoma,0.259 µM
same,TGI,IGROV1 ovarian,3.93 µM
same,TGI,SF-268 CNS,1.75 µM
same,TGI,MDA-N,0.274 µM
same,TGI,MDA-MB-435,0.222 µM
same,TGI,LOX IMVI melanoma,3.56 µM
same,TGI,CAKI-1 renal,0.377 µM
same,TGI,SF-539 CNS,0.0678 µM
same,TGI,HCC-2998 colon,0.192 µM
same,TGI,SK-MEL-5 melanoma,0.328 µM
same,TGI,UO-31 renal,0.294 µM
same,TGI,SNB-19 CNS,3.76 µM
same,TGI,SK-MEL-2 melanoma,0.315 µM
same,TGI,OVCAR-5 ovarian,0.564 µM
same,TGI,HS 578T breast,2.93 µM
same,TGI,OVCAR-4 ovarian,3 µM
same,TGI,UACC-62 melanoma,0.272 µM
same,TGI,MCF7 breast,0.671 µM
same,TGI,DU-145 prostate,1.06 µM
same,TGI,RPMI-8226 leukemia,0.441 µM
same,TGI,A498 renal,0.964 µM
same,TGI,NCI-H23 lung,2.06 µM
same,TGI,SW-620 colon,0.317 µM
same,TGI,SNB-75 CNS,0.442 µM
same,TGI,NCI/ADR-RES ovarian,1.71 µM
same,TGI,MOLT-4 leukemia,> 100 µM
same,TGI,CCRF-CEM leukemia,1.78 µM
same,TGI,SK-OV-3 ovarian,1.88 µM
same,TGI,HOP-62 NSCLC,0.776 µM
same,TGI,OVCAR-3 ovarian,0.877 µM
O=[N+]([O-])C(=C1Nc2ccccc2N1)/C(Cl)=C(/Cl)N1CCOCC1,TGI,786-0 renal,> 100 µM
same,TGI,PC-3 prostate,> 100 µM
same,TGI,U251 CNS,> 100 µM
same,TGI,HCT-15 colon,> 100 µM
same,TGI,A549 NSCLC,> 100 µM
same,TGI,NCI-H460 lung,> 100 µM
same,TGI,KM12 colon,> 100 µM
same,TGI,SN12C renal,> 100 µM
same,TGI,K-562 leukemia,> 100 µM
same,TGI,ACHN renal,> 100 µM
same,TGI,NCI-H226 lung,> 100 µM
same,TGI,SK-MEL-28 melanoma,> 100 µM
same,TGI,T-47D breast,51.2 µM
same,TGI,COLO 205 colon,> 100 µM
same,TGI,MDA-MB-231 breast,> 100 µM
same,TGI,HCT-116 colon,> 100 µM
same,TGI,UACC-257 melanoma,> 100 µM
same,TGI,HT29 colon,> 100 µM
same,TGI,OVCAR-8 ovarian,> 100 µM
same,TGI,SF-295 CNS,> 100 µM
same,TGI,BT-549 breast,> 100 µM
same,TGI,MALME-3M melanoma,> 100 µM
same,TGI,EKVX NSCLC,> 100 µM
same,TGI,M14 melanoma,> 100 µM
same,TGI,SF-268 CNS,62.5 µM
same,TGI,MDA-N,> 100 µM
same,TGI,MDA-MB-435,> 100 µM
same,TGI,CAKI-1 renal,> 100 µM
same,TGI,SF-539 CNS,> 100 µM
same,TGI,HCC-2998 colon,> 100 µM
same,TGI,UO-31 renal,> 100 µM
same,TGI,SNB-19 CNS,> 100 µM
same,TGI,SK-MEL-2 melanoma,> 100 µM
same,TGI,OVCAR-5 ovarian,> 100 µM
same,TGI,HS 578T breast,> 100 µM
same,TGI,OVCAR-4 ovarian,61 µM
same,TGI,UACC-62 melanoma,> 100 µM
same,TGI,MCF7 breast,> 100 µM
same,TGI,RPMI-8226 leukemia,> 100 µM
same,TGI,A498 renal,> 100 µM
same,TGI,NCI-H23 lung,> 100 µM
same,TGI,SW-620 colon,> 100 µM
same,TGI,SNB-75 CNS,> 100 µM
same,TGI,NCI/ADR-RES ovarian,> 100 µM
same,TGI,MOLT-4 leukemia,> 100 µM
same,TGI,CCRF-CEM leukemia,> 100 µM
same,TGI,SK-OV-3 ovarian,> 100 µM
same,TGI,HOP-62 NSCLC,> 100 µM
same,TGI,OVCAR-3 ovarian,96.6 µM
